From PMC10010643 (Cancer Chemotherapy and Pharmacology, 2023)
Several values for one entry are separate records, joined by “and”; a condition that tells them apart may be missing. Equal entries are not always repeated. Where two headings read alike, the source gives them in different places.

How the values were obtained:
[1] = Safety and tolerability, Part B multiple ascending-dose phase in healthy participants; type: in vivo, human
Experimental: (§1) Following review of safety, tolerability, and PK data from cohorts A1–A6, participants received twice-daily doses (BID) under fasted conditions on days 1–9 and a final single dose in the morning of day 10. […] There was one treatment period and all participants stayed at the CRU from day − 1 until the morning of day 11 (24 h after the final dose on day 10). All were to return for a follow-up visit 5–7 days after their final dose.
Safety and tolerability assessments included adverse event (AE) monitoring, physical examinations, laboratory assessments (hematology, clinical chemistry, and urinalysis), vital signs (blood pressure, pulse rate, and body temperature) and ECG.
No formal statistical assessment was performed for the safety analysis.

[2] = Plasma PK, Part B multiple oral BID doses in healthy participants; type: in vivo, human; conditions: for concentration at 12 h / AUC / Cmax / Tmax / half-life / Vd/F: human, plasma, oral; for concentration at 12 h: read-out: Trough (12 h post-dose) concentration (Cmin), geometric mean (range); for AUC: read-out: AUC0-τ, geometric mean (CV%); for Cmax: read-out: Cmax, geometric mean (CV%); for half-life: read-out: t½, arithmetic mean (SD) (converted); for Vd/F: read-out: Vz/F, geometric mean (CV%)
Experimental: as §1
Blood samples (4 mL) were collected in K3 EDTA tubes by venipuncture or cannulation. In Part A, samples were taken pre-dose and at 0.5, 1, 1.5, 2, 3, 4, 6, 8, 12, 16, 24, 36 and 48 h post-dose. In part B, samples were taken pre-dose on days 1 (pre-AM dose) and 10 (pre-final dose) and at 0.5, 1, 1.5, 2, 3, 4, 6, 8 and 12 h post-AM dose for day 1 and post-final dose for day 10. Samples were also taken on days 4–9 pre-AM dose, on day 11 at 24 and 36 h post-final dose, and on day 12 at 48 h post-final dose. Blood samples were centrifuged at 1500 g for 10 min at […] and split into two plasma aliquots.
Urine was collected by spot collection in Part A only before dosing and between 0–6, 6–12, 12–24, and 24–48 h post-dose. Blood and urine aliquots were stored in polypropylene tubes at − 70 °C until bioanalysis.
In Part B, the plasma PK parameters included AUC over a dosing interval (AUC0–τ), AUC0–∞, Cmax, Tmax, t½, minimum observed plasma concentration (Cmin), observed accumulation ratio based on AUC0–τ (RAAUC0–τ) and observed accumulation ratio based on Cmax (RACmax). Further details can be found in the Supplementary materials.
Dose proportionality was analyzed for exposure parameters after fasted doses. The power model was used on AUC0–∞, AUC0–tlast, and Cmax on day 1 in Part A. Data were analyzed over two dose ranges: 50–400 mg (50 mg capsules) and 5–50 mg (5 mg capsules). An analysis of variance was used on AUC0–τ and Cmax on day 10 in Part B. The effect of food on AUC0–∞, AUC0–tlast, and Cmax at 50 mg in Part A was investigated using a mixed model which included treatment as a fixed effect and subject as a random effect.

[3] = design: method as in PMID 36154172; conditions: in mice; cited from earlier work
[4] = test system: human liver stellate cell line; design: method as in PMID 36154172; conditions: in vitro; cited from earlier work
lung fibrosis = test system: lung fibrosis; design: method as in PMID 36154172; conditions: bleomycin-induced; cited from earlier work
[5] = 50 mg, 50 mg BID, fasted, Day 1
[6] = 50 mg, 50 mg BID, fasted, Day 10
[7] = 100 mg, 100 mg BID, fasted, Day 1
[8] = 100 mg, 100 mg BID, fasted, Day 10

Compound: OC[C@H]1O[C@H](Sc2cncc(Br)c2)[C@H](O)[C@@H](n2cc(-c3cc(F)c(F)c(F)c3)nn2)[C@H]1O [GB1211]
- Number of TEAEs ([1]; 50 mg BID): 8
- Participants discontinued due to TEAEs ([1]; 50 mg BID): 0 n (%)
- Participants with SAEs ([1]; 50 mg BID): 0 n (%)
- Participants with TEAEs ([1]; 50 mg BID): 4 (50.0) n (%) and 4 (50.0%) n (%)
- Severity (all TEAEs): Mild ([1]; 50 mg BID): 2 (25.0) n (%)
- Severity (all TEAEs): Moderate ([1]; 50 mg BID): 2 (25.0) n (%)
- Severity (all TEAEs): Severe ([1]; 50 mg BID): 0 n (%)
- Severity (all TEAEs): Total ([1]; 50 mg BID): 4 (50.0) n (%)
- Severity (possibly related to study treatment): Mild ([1]; 50 mg BID): 2 (25.0) n (%)
- Severity (possibly related to study treatment): Moderate ([1]; 50 mg BID): 2 (25.0) n (%)
- Severity (possibly related to study treatment): Severe ([1]; 50 mg BID): 0 n (%)
- Severity (possibly related to study treatment): Total ([1]; 50 mg BID): 4 (50.0) n (%)
- TEAE Abdominal distension, participants ([1]; 50 mg BID): 0 n (%)
- TEAE Abdominal pain upper, participants ([1]; 50 mg BID): 0 n (%)
- TEAE Abdominal pain, participants ([1]; 50 mg BID): 0 n (%)
- TEAE Arthralgia, participants ([1]; 50 mg BID): 0 n (%)
- TEAE Constipation, participants ([1]; 50 mg BID): 0 n (%)
- TEAE Dysuria, no. of AEs ([1]; 50 mg BID): 1
- TEAE Dysuria, participants ([1]; 50 mg BID): 1 (12.5%) n (%)
- TEAE Gastrointestinal disorders, participants ([1]; 50 mg BID): 0 n (%)
- TEAE Headache, no. of AEs ([1]; 50 mg BID): 5
- TEAE Headache, participants ([1]; 50 mg BID): 4 (50.0%) n (%)
- TEAE Injury, poisoning and procedural complications, no. of AEs ([1]; 50 mg BID): 1
- TEAE Injury, poisoning and procedural complications, participants ([1]; 50 mg BID): 1 (12.5%) n (%)
- TEAE Limb injury, no. of AEs ([1]; 50 mg BID): 1
- TEAE Limb injury, participants ([1]; 50 mg BID): 1 (12.5%) n (%)
- TEAE Menstruation irregular, no. of AEs ([1]; 50 mg BID): 1
- TEAE Menstruation irregular, participants ([1]; 50 mg BID): 1 (12.5%) n (%)
- TEAE Musculoskeletal and connective tissue disorders, participants ([1]; 50 mg BID): 0 n (%)
- TEAE Nervous system disorders, no. of AEs ([1]; 50 mg BID): 5
- TEAE Nervous system disorders, participants ([1]; 50 mg BID): 4 (50.0%) n (%)
- TEAE Pain in extremity, participants ([1]; 50 mg BID): 0 n (%)
- TEAE Pollakiuria, participants ([1]; 50 mg BID): 0 n (%)
- TEAE Renal and urinary disorders, no. of AEs ([1]; 50 mg BID): 1
- TEAE Renal and urinary disorders, participants ([1]; 50 mg BID): 1 (12.5%) n (%)
- TEAE Reproductive system and breast disorders, no. of AEs ([1]; 50 mg BID): 1
- TEAE Reproductive system and breast disorders, participants ([1]; 50 mg BID): 1 (12.5%) n (%)
- Number of TEAEs considered moderate ([1]; 50 mg BID cohort): Two
- Number of TEAEs ([1]; 100 mg BID): 8
- Participants discontinued due to TEAEs ([1]; 100 mg BID): 0 n (%)
- Participants with SAEs ([1]; 100 mg BID): 0 n (%)
- Participants with TEAEs ([1]; 100 mg BID): 3 (37.5) n (%) and 3 (37.5%) n (%)
- Severity (all TEAEs): Mild ([1]; 100 mg BID): 3 (37.5) n (%)
- Severity (all TEAEs): Moderate ([1]; 100 mg BID): 0 n (%)
- Severity (all TEAEs): Severe ([1]; 100 mg BID): 0 n (%)
- Severity (all TEAEs): Total ([1]; 100 mg BID): 3 (37.5) n (%)
- Severity (possibly related to study treatment): Mild ([1]; 100 mg BID): 3 (37.5) n (%)
- Severity (possibly related to study treatment): Moderate ([1]; 100 mg BID): 0 n (%)
- Severity (possibly related to study treatment): Severe ([1]; 100 mg BID): 0 n (%)
- Severity (possibly related to study treatment): Total ([1]; 100 mg BID): 3 (37.5) n (%)
- TEAE Abdominal distension, no. of AEs ([1]; 100 mg BID): 1
- TEAE Abdominal distension, participants ([1]; 100 mg BID): 1 (12.5%) n (%)
- TEAE Abdominal pain upper, no. of AEs ([1]; 100 mg BID): 1
- TEAE Abdominal pain upper, participants ([1]; 100 mg BID): 1 (12.5%) n (%)
- TEAE Abdominal pain, participants ([1]; 100 mg BID): 0 n (%)
- TEAE Arthralgia, no. of AEs ([1]; 100 mg BID): 1
- TEAE Arthralgia, participants ([1]; 100 mg BID): 1 (12.5%) n (%)
- TEAE Constipation, no. of AEs ([1]; 100 mg BID): 2
- TEAE Constipation, participants ([1]; 100 mg BID): 2 (25.0%) n (%)
- TEAE Dysuria, participants ([1]; 100 mg BID): 0 n (%)
- TEAE Gastrointestinal disorders, no. of AEs ([1]; 100 mg BID): 4
- TEAE Gastrointestinal disorders, participants ([1]; 100 mg BID): 2 (25.0%) n (%)
- TEAE Headache, participants ([1]; 100 mg BID): 0 n (%)
- TEAE Injury, poisoning and procedural complications, participants ([1]; 100 mg BID): 0 n (%)
- TEAE Limb injury, participants ([1]; 100 mg BID): 0 n (%)
- TEAE Menstruation irregular, participants ([1]; 100 mg BID): 0 n (%)
- TEAE Musculoskeletal and connective tissue disorders, no. of AEs ([1]; 100 mg BID): 2
- TEAE Musculoskeletal and connective tissue disorders, participants ([1]; 100 mg BID): 1 (12.5%) n (%)
- TEAE Nervous system disorders, participants ([1]; 100 mg BID): 0 n (%)
- TEAE Pain in extremity, no. of AEs ([1]; 100 mg BID): 1
- TEAE Pain in extremity, participants ([1]; 100 mg BID): 1 (12.5%) n (%)
- TEAE Pollakiuria, no. of AEs ([1]; 100 mg BID): 2
- TEAE Pollakiuria, participants ([1]; 100 mg BID): 2 (25.0%) n (%)
- TEAE Renal and urinary disorders, no. of AEs ([1]; 100 mg BID): 2
- TEAE Renal and urinary disorders, participants ([1]; 100 mg BID): 2 (25.0%) n (%)
- TEAE Reproductive system and breast disorders, participants ([1]; 100 mg BID): 0 n (%)
- Participants with a TEAE possibly related to treatment, GB1211 ([1]; Part B): 7
- Number of TEAEs on GB1211 ([1]; Part B, all GB1211 doses): 16
- Participants with TEAEs on GB1211 ([1]; Part B, all GB1211 doses): 7
- CL/F, geometric mean (CV%) ([2]; 50 mg BID, fasted, Day 10): 9.75 (29.0) L/h
- Cmin, geometric mean (CV%) ([2]; 50 mg BID, fasted, Day 10): 249 (26.2) ng/mL
- CL/F, geometric mean (CV%) ([2]; 100 mg BID, fasted, Day 10): 13.3 (21.1) L/h
- Cmin, geometric mean (CV%) ([2]; 100 mg BID, fasted, Day 10): 338 (27.5) ng/mL
- t½, arithmetic mean (SD) ([2]; 100 mg BID, fasted, Day 10): 13.1 (2.65) h
- Dose proportionality of AUC0–τ and Cmax ([2]; 50 and 100 mg BID, day 10): sub-proportional manner
- Time to steady-state after the start of the BID multiple-dosing period ([2]; by the morning of day 3): 48 h
- concentration at 12 h ([2]; 50 mg BID, day 10): 249 ng/mL
- AUC [2, 5]: 2220 ng·h/mL
- Cmax [2, 5]: 330 ng/mL
- Tmax ([2]; 50 mg, 50 mg BID, fasted, Day 1, read-out: Tmax, median (min–max)): 4 h
- AUC [2, 6]: 5130 ng·h/mL
- Cmax [2, 6]: 658 ng/mL
- Tmax ([2]; 50 mg, 50 mg BID, fasted, Day 10, read-out: Tmax, median (min–max)): 2.5 h
- half-life [2, 6]: ~21.4 h
- concentration at 12 h ([2]; 100 mg BID, day 10): 338 ng/mL
- AUC [2, 7]: 3560 ng·h/mL
- Cmax [2, 7]: 546 ng/mL
- Tmax ([2]; 100 mg, 100 mg BID, fasted, Day 1, read-out: Tmax, median (min–max)): 3 h
- AUC [2, 8]: 7530 ng·h/mL
- Cmax [2, 8]: 975 ng/mL
- Tmax ([2]; 100 mg, 100 mg BID, fasted, Day 10, read-out: Tmax, median (min–max)): 3 h
- half-life [2, 8]: ~13.1 h
- Tmax ([2]; multiple BID doses, days 1 and 10, read-out: Median Tmax, range): 2.5 to 4 h
- Vd/F ([2]; 50 mg BID, fasted, Day 10): 311 L
- Vd/F ([2]; 100 mg BID, fasted, Day 10): 248 L
- Accumulation in plasma with multiple dosing ([2]; multiple BID oral dosing): ~ twofold
- Time to steady-state ([2]; multiple BID oral dosing): ≤ 3 days
- Oral bioavailability [3]: 68%
- TGFβ-induced fibrosis gene expression [4]: inhibiting TGFβ-induced fibrosis gene expression
- Fibrosis in vivo, lung (lung fibrosis): reducing fibrosis
